Bounds are passed on as bounds.

This test deals with T1, mouse TRPM3α2 (mTRPM3) ion channel (Mus musculus, UniProt J9SQF3).
T1 construct: expressed in transfected cells; host or cells: flip-in HEK293
T1 sequence (J9SQF3 1-1709 isoform J9SQF3-12): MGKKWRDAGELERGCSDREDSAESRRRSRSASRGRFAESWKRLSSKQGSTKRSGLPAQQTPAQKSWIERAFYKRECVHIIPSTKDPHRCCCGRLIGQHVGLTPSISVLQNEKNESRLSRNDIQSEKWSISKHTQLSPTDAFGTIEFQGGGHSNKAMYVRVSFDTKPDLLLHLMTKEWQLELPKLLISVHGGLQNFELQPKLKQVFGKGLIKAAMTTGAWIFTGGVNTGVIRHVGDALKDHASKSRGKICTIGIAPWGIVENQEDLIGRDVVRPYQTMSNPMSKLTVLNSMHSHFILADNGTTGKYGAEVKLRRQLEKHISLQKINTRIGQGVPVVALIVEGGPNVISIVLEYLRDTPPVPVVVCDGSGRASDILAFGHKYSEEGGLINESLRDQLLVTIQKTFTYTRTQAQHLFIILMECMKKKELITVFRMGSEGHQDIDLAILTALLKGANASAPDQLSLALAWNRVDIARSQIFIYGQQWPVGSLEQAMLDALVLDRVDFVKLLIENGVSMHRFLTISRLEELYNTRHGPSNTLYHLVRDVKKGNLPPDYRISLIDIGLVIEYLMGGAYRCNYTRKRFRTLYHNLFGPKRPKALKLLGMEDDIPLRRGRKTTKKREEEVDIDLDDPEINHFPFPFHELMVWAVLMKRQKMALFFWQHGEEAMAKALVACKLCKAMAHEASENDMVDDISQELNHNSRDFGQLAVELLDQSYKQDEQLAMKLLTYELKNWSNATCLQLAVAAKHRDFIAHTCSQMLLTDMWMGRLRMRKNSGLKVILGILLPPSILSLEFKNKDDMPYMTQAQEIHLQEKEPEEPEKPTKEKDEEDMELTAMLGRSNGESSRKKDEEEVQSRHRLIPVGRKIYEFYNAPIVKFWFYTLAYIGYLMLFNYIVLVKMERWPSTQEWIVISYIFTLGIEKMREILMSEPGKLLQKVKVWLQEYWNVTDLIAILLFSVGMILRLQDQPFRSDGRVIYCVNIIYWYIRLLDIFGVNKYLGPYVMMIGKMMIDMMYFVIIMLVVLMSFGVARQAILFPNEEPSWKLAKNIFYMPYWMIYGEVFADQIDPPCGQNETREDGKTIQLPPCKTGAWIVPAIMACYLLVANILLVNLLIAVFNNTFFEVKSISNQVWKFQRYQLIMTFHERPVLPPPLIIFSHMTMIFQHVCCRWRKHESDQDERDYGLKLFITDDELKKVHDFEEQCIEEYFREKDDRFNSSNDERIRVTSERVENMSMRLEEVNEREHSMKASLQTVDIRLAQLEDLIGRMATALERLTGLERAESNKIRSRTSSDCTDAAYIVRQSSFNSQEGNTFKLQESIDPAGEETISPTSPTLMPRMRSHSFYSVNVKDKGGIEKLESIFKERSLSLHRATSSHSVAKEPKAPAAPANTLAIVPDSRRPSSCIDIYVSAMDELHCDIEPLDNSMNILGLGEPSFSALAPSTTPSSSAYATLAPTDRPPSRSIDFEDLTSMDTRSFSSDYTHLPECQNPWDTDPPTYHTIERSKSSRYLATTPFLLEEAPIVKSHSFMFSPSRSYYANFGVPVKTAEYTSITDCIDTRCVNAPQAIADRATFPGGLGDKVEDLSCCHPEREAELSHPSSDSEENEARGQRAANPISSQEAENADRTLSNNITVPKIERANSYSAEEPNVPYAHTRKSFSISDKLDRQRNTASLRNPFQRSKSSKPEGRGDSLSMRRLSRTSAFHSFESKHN
Put plainly: TRPM3 ion channel driven Ca2+ uptake, Fluo-4 AM assay, PS-stimulated (mTRPM3). The test is classed as cell-based. To be noted: TRPM3 overexpressing flip-in HEK293 cells stimulated with Pregnenolone sulfate (PS) 50 μM, activity ranges A, B, C. The method, then:
Monitoring the TRPM3 Ion Channel Driven Ca^2+ Uptake.
In order to monitor the inhibition of the mouse TRPM3α2 (mTRPM3) ion channel by the compounds of the invention, a cellular system making use of an mTRPM3alpha2 or hTRPM3 overexpressing cell line (flip-in HEK293) was used. The TRPM3 channel was stimulated/opened with Pregnenolone sulfate (PS) (50 μM) which results in Ca^2+ influx.
For mTRPM3, the intracellular Ca^2+ was measured with a Calcium responsive dye, Fluor-4 AM ester (Invitrogen). Cells were cultured until a confluence of 80-90%, washed with Versene (Invitrogen) and detached from the surface by a short incubation with 0.05% Trypsin (Invitrogen). The trypsination process was stopped by the addition of complete cell culture medium (DMEM, glutamax, 10% FCS, NEAA, Pen-Strep). Cells were collected and resuspended in Krebs buffer without Calcium at RT.
Prior the cell seeding (±2000 cells/well into a black, 384 well plate (Greiner)) the diluted compound was added in the assay plate, together with the PS dissolved in Krebs buffer containing Calcium. […] Directly after cell addition the plates were read on an Envision fluorescence reader (Perkin Elmer) by an Excitation of 485 nm and emission at 535 nm.
Channel inhibition was calculated compared to a non-PS stimulated control versus a condition stimulated with PS (50 μM) with vehicle. The ability of the compounds of the invention to inhibit this activity was determined as: Percentage inhibition=[1−((RFU determined for sample with test compound present−RFU determined for sample with positive control inhibitor) divided by (RFU determined in the presence of vehicle−RFU determined for sample with positive control inhibitor))]*100.
The activities of the Example compounds tested are depicted in the table below.
For `COC(=O)[C@@H]1C[C@H](NC(=O)c2c(C)oc3ccc(OCc4ccccc4)cc23)CN1` [Cpd 191, methyl (2S,4S)-4-(5-(benzyloxy)-2-methylbenzofuran-3-carboxamido)pyrrolidine-2-carboxylate], the IC50 was less than 1000 nM. In turn, `Cc1oc2ccc(OCc3ccccc3)cc2c1C(=O)NC1CCCC1` [Cpd 046, 5-(benzyloxy)-N-cyclopentyl-2-methylbenzofuran-3-carboxamide] yielded an IC50 of less than 1000 nM. For `Cc1oc2cc(F)c(OCc3ccccc3)cc2c1C(=O)NC1CNCC1(F)F` (single isomer, unassigned) [Cpd 302-En 2, 5-(benzyloxy)-N-(4,4-difluoropyrrolidin-3-yl)-6-fluoro-2-methylbenzofuran-3-carboxamide], the IC50 is less than 1000 nM. Regarding `Cc1oc2ccc(OCc3ccccc3)cc2c1C(=O)NC1CCNC(=O)C1` (centres unmarked) [Cpd 108, 5-(benzyloxy)-2-methyl-N-(2-oxopiperidin-4-yl)benzofuran-3-carboxamide], the IC50 was 1000 to 20000 nM. As to `Cc1noc(C)c1CCNC(=O)c1c(C)oc2ccc(OCc3ccccc3)cc12` [Cpd 178, 5-(benzyloxy)-N-(2-(3,5-dimethylisoxazol-4-yl)ethyl)-2-methylbenzofuran-3-carboxamide], the IC50 is 1000 to 20000 nM.

In turn, `Cc1oc2ccc(OCc3ccccc3)cc2c1C(=O)NCc1cnccn1` [Cpd 102, 5-(benzyloxy)-2-methyl-N-(pyrazin-2-ylmethyl)benzofuran-3-carboxamide] yielded a half-maximal inhibitory concentration (IC50) of 1000 to 20000 nM. As for `Cc1oc2ccc(OCc3ccccc3)cc2c1C(=O)NC1CCN2CCCC12` (single isomer, unassigned) [Cpd 144-Dia 2, 5-(benzyloxy)-N-(hexahydro-1H-pyrrolizin-1-yl)-2-methylbenzofuran-3-carboxamide], the IC50 was less than 1000 nM. To `Cc1oc2ccc(OCc3ccccc3)cc2c1C(=O)NC1CCNC(C)C1` (racemic) [Cpd 114, rac-5-(benzyloxy)-2-methyl-N-(trans-2-methylpiperidin-4-yl)benzofuran-3-carboxamide] belongs less than 1000 nM. In the case of `Cc1oc2ccc(OCc3ccccc3)cc2c1C(=O)NCCN1CCN(C)CC1` [Cpd 189, 5-(benzyloxy)-2-methyl-N-(2-(4-methylpiperazin-1-yl)ethyl)benzofuran-3-carboxamide], the IC50 fell in the range of 1000 to 20000 nM. To `Cc1oc2ccc(OCc3c(F)cccc3F)cc2c1C(=O)N[C@H]1CCNC1` [Cpd 136, (S)-5-((2,6-difluorobenzyl)oxy)-2-methyl-N-(pyrrolidin-3-yl)benzofuran-3-carboxamide] belongs less than 1000 nM; to `COc1ccccc1COc1ccc2oc(C)c(C(=O)N[C@@H](CO)C(N)=O)c2c1` [Cpd 339, (S)—N-(1-Amino-3-hydroxy-1-oxopropan-2-yl)-5-((2-methoxybenzyl)oxy)-2-methylbenzofuran-3-carboxamide], less than 1000 nM; to `Cc1oc2ccc(OCc3ccccc3)cc2c1C(=O)NCc1cccnc1` [Cpd 100, 5-(benzyloxy)-2-methyl-N-(pyridin-3-ylmethyl)benzofuran-3-carboxamide], 1000 to 20000 nM. To `Cc1oc2ccc(OCc3ccccc3)cc2c1C(=O)N1CCCC(C(=O)NCC(C)C)C1` (centres unmarked) [Cpd 236, 1-(5-(benzyloxy)-2-methylbenzofuran-3-carbonyl)-N-isobutylpiperidine-3-carboxamide] belongs greater than 20000 nM. The molecule `Cc1oc2ccc(OCc3ccccc3F)cc2c1C(=O)N[C@@H]1COC[C@@H]1O` (single isomer, unassigned) [Cpd 329-En 2] displayed an IC50 of less than 1000 nM. Molecule `Cc1oc2ccc(COc3ccccc3F)cc2c1C(=O)NC(CO)C(N)=O` (single isomer, unassigned) [Cpd 321-En 1, N-(1-amino-3-hydroxy-1-oxopropan-2-yl)-5-((2-fluorophenoxy)methyl)-2-methylbenzofuran-3-carboxamide] gave an IC50 of 1000 to 20000 nM.

The molecule `Cc1oc2ccc(OCc3ccccc3)cc2c1C(=O)N[C@@H]1C[C@H]2COC[C@@H](C1)N2C(=O)OC(C)(C)C` [Cpd 265, tert-butyl (1R,5S,7r)-7-(5-(benzyloxy)-2-methylbenzofuran-3-carboxamido)-3-oxa-9-azabicyclo-[3.3.1]nonane-9-carboxylate] displayed an IC50 greater than 20000 nM. In the case of `O=C(O)c1coc2ccc(OCc3ccccc3)cc12` [Cpd 001, 5-(benzyloxy)benzofuran-3-carboxylic acid] it was 1000 to 20000 nM. Take `Cc1oc2ccc(OCc3ccccc3)cc2c1C(=O)NC1CN(C2COC2)C1` [Cpd 148, 5-(benzyloxy)-2-methyl-N-(1-(oxetan-3-yl)azetidin-3-yl)benzofuran-3-carboxamide]: the IC50 is less than 1000 nM. As for `Cc1cccc(COc2ccc3oc(C)c(C(=O)NS(=O)(=O)C4CC4)c3c2)c1` [Cpd 170, N-(cyclopropylsulfonyl)-2-methyl-5-((3-methylbenzyl)oxy)benzofuran-3-carboxamide], the IC50 is 1000 to 20000 nM. In the case of `Cc1oc2ccc(OCc3ccccc3)cc2c1C(=O)NC1CNCCC1F` (single isomer, unassigned) [Cpd 130-Dia 1], the IC50 is less than 1000 nM.

For `Cc1oc2ccc(OCc3c(F)cccc3F)cc2c1C(=O)NC1CCNC1=O` (centres unmarked) [Cpd 172, 5-((2,6-difluorobenzyl)oxy)-2-methyl-N-(2-oxopyrrolidin-3-yl)benzofuran-3-carboxamide], the IC50 is less than 1000 nM.

For `Cc1oc2ccc(OCc3ccccc3)cc2c1C(=O)N[C@H]1C[C@@H]2CN(C(=O)OC(C)(C)C)C[C@@H]2C1` [Cpd 259, tert-butyl trans-5-(5-(benzyloxy)-2-methylbenzofuran-3-carboxamido)hexahydrocyclopenta-[c]pyrrole-2(1H)-carboxylate], the IC50 was in the range of 1000 to 20000 nM. In turn, `Cc1ccc(COc2ccc3oc(C)c(C(=O)O)c3c2)cc1` [Cpd 006, 2-methyl-5-((4-methylbenzyl)oxy)benzofuran-3-carboxylic acid] registered an IC50 of 1000 to 20000 nM.

As to `Cc1oc2ccc(OCc3ccccc3)cc2c1C(=O)N[C@H]1CN[C@H](C(N)=O)C1` [Cpd 158, (2S,4R)-4-(5-(benzyloxy)-2-methylbenzofuran-3-carboxamido)pyrrolidine-2-carboxamide], the IC50 was less than 1000 nM. In turn, `COCC(Oc1ccc2oc(C)c(C(=O)N[C@@H](CO)C(N)=O)c2c1)c1ccccc1` (single isomer, unassigned) [Cpd 346-En 2] returned a 50% inhibitory concentration (IC50) of less than 1000 nM. Turning to `Cc1oc2c(C#N)cc(OCc3ccccc3)cc2c1C(=O)NC1CNCC1(F)F` (single isomer, unassigned) [Cpd 305-En 1, 5-(benzyloxy)-7-cyano-N-(4,4-difluoropyrrolidin-3-yl)-2-methylbenzofuran-3-carboxamide], the half-inhibitory concentration (IC50) is greater than 20000 nM. In the case of `Cc1oc2ccc(OCc3cccc(F)c3F)cc2c1C(=O)N[C@H]1CCN(C(=O)OC(C)(C)C)C1` [Cpd 256, tert-butyl (S)-3-(5-((2,3-difluorobenzyl)oxy)-2-methylbenzofuran-3-carboxamido)pyrrolidine-1-carboxylate] it was 1000 to 20000 nM. As to `COCCCN1CCC(NC(=O)c2c(C)oc3ccc(OCc4ccccc4)cc23)CC1` [Cpd 229, 5-(benzyloxy)-N-(1-(3-methoxypropyl)piperidin-4-yl)-2-methylbenzofuran-3-carboxamide], the concentration for half-maximal inhibition (IC50) was in the range of 1000 to 20000 nM.

`Cc1oc2ccc(OCc3ccccc3)cc2c1C(=O)NCCN(C)C` [Cpd 055, 5-(benzyloxy)-N-(2-(dimethylamino)ethyl)-2-methylbenzofuran-3-carboxamide] had an IC50 of 1000 to 20000 nM.

As for `Cc1oc2ccc(OCc3ccccc3F)cc2c1C(=O)NC1(CO)CCNC1=O` (single isomer, unassigned) [Cpd 334-En 1], the half-inhibitory concentration (IC50) was less than 1000 nM. For `Cc1oc2ccc(OCc3ccccc3F)cc2c1C(=O)NC1(C(N)=O)CCC1` [Cpd 322, N-(1-carbamoylcyclobutyl)-5-((2-fluorobenzyl)oxy)-2-methylbenzofuran-3-carboxamide], the IC50 was less than 1000 nM. In turn, `Cc1oc2ccc(OCc3ccccc3F)cc2c1C(=O)NC1(CO)CCOC1` (single isomer, unassigned) [Cpd 327-En 1, 5-((2-fluorobenzyl)oxy)-N-(3-(hydroxymethyl)tetrahydrofuran-3-yl)-2-methylbenzofuran-3-carboxamide] displayed an IC50 of less than 1000 nM. For the molecule `Cc1oc2c(F)cc(OCc3ccccc3)cc2c1C(=O)NC1CNCC1(F)F` (single isomer, unassigned) [Cpd 306-En 1], the half-maximal inhibitory concentration (IC50) was less than 1000 nM.

`Cc1oc2ccc(OCc3ccccc3)c(C)c2c1C(=O)NC1CNCC1(F)F` (single isomer, unassigned) [Cpd 299-En 1, 5-(benzyloxy)-N-(4,4-difluoropyrrolidin-3-yl)-2,4-dimethylbenzofuran-3-carboxamide] had an IC50 of less than 1000 nM.

The molecule `Cc1oc2ccc(OCc3c(F)cccc3F)cc2c1C(=O)NC1CCNCC1(F)F` (centres unmarked) [Cpd 226, 5-((2,6-difluorobenzyl)oxy)-N-(3,3-difluoropiperidin-4-yl)-2-methylbenzofuran-3-carboxamide] yielded an IC50 of less than 1000 nM.

These data come from patent publication US20230391739A1, “ARYL DERIVATIVES FOR TREATING TRPM3 MEDIATED DISORDERS” (Katholieke Universiteit Leuven, priority 2020, published 2023).
